Laboratory results from article PMC8882856, “The affinity and selectivity of α‐adrenoceptor antagonists, antidepressants and antipsychotics for the human α2A, α2B, and α2C‐adrenoceptors and comparison with human α1 and β‐adrenoceptors” (Pharmacology Research & Perspectives, 2022).
Where two headings read alike, the source gives them in different places.

Assays:
human β2‐adrenoceptor = human β2‐adrenoceptor (Homo sapiens, UniProt P07550); type: binding; conditions: for IC50 (log) β2, IC50>top concentration used: ^3H‐CGP12177, log value; for Log KD β2: ^3H‐CGP12177 whole cell binding, log values, mean ± s.e.mean, ^app = apparent KD, 'no binding to' = log top concentration
human α2A‐adrenoceptor [1] = molecular target: T1, human α2A‐adrenoceptor (Homo sapiens, UniProt P08913)
T1 sequence (P08913 1-465): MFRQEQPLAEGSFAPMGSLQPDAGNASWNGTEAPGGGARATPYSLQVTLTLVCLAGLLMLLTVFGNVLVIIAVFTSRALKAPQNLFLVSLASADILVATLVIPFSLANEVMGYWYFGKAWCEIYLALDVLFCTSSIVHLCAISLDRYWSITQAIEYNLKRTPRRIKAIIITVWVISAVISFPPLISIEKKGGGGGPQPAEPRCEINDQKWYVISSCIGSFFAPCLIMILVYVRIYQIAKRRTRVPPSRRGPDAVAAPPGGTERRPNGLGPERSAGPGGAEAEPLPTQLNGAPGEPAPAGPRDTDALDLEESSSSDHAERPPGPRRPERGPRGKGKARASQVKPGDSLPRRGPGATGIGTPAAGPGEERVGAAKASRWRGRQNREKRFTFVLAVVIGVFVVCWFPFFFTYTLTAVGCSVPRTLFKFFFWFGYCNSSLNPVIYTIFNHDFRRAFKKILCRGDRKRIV

human α2B‐adrenoceptor [2] = molecular target: T2, human α2B‐adrenoceptor (Homo sapiens, UniProt P18089)
T2 sequence (P18089 1-450): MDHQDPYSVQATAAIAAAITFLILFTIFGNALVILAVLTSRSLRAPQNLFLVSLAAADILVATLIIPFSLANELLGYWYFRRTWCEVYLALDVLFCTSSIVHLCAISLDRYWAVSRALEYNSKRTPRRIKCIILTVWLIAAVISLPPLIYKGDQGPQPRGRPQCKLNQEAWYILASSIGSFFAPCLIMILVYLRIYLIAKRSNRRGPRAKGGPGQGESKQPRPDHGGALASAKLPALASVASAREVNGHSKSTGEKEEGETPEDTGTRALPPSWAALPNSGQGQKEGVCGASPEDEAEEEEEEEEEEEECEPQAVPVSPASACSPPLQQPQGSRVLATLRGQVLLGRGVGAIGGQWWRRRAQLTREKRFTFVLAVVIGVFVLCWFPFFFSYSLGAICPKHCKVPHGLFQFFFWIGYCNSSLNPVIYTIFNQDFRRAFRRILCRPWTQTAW

human α2C‐adrenoceptor [3] = molecular target: T3, human α2C‐adrenoceptor (Homo sapiens, UniProt P18825)
T3 sequence (P18825 1-462): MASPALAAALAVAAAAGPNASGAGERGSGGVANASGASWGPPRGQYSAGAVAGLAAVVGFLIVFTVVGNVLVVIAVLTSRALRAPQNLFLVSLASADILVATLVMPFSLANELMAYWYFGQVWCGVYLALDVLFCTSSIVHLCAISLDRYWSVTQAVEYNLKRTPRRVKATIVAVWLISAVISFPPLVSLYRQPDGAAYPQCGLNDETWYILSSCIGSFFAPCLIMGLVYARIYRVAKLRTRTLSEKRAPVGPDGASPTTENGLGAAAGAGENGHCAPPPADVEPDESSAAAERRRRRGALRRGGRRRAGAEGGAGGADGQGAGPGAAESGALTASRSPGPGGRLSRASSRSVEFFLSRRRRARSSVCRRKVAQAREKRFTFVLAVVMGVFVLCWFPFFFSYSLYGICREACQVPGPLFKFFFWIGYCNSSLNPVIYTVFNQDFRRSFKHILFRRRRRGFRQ

human β1‐adrenoceptor [4] = molecular target: T4, human β1‐adrenoceptor (Homo sapiens, UniProt P08588); conditions: for Log KD β1: ^3H‐CGP12177 whole cell binding, log values, mean ± s.e.mean, ^app = apparent KD, 'no binding to' = log top concentration
human α2A‐adrenoceptor [5] = molecular target: T1, human α2A‐adrenoceptor; assay: ^3H‐rauwolscine whole cell competition binding, CHO‐α2A cells; conditions: for Selectivity ratio α2A vs α2B (higher affinity for α2A): ratio of KD values
human α2C‐adrenoceptor [6] = molecular target: T3, human α2C‐adrenoceptor; assay: ^3H‐rauwolscine whole cell competition binding, CHO‐α2C cells; conditions: for Selectivity ratio α2A vs α2C (higher affinity for α2C) / Selectivity ratio α2B vs α2C (higher affinity for α2C): ratio of KD values
human α2B‐adrenoceptor [7] = molecular target: T2, human α2B‐adrenoceptor; assay: ^3H‐rauwolscine whole cell competition binding, CHO‐α2B cells
human α1A‐adrenoceptor = molecular target: human α1A‐adrenoceptor; design: method as in PMID 32608144; conditions: identical whole cell method; ref [33]; read-out: α1A‐adrenoceptor affinity; cited from earlier work
human α2A‐adrenoceptors = conditions: ref [23]; read-out: human α2A‐affinity; cited from earlier work
human β1‐adrenoceptor [8] = molecular target: T4, human β1‐adrenoceptor; assay: cell-based

Sequence of human β2‐adrenoceptor (P07550 whole entry): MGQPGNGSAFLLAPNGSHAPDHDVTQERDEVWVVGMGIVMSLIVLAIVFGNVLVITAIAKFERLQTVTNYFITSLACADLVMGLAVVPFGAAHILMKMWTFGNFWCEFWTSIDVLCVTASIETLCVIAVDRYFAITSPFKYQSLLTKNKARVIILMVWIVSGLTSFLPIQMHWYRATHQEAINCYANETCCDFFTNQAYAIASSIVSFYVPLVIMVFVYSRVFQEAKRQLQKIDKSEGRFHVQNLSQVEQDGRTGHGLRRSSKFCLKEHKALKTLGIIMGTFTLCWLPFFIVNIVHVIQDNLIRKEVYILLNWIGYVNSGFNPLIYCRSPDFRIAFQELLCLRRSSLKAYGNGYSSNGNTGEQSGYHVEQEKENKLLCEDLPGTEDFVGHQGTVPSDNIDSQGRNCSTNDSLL
T4 sequence (P08588 whole entry): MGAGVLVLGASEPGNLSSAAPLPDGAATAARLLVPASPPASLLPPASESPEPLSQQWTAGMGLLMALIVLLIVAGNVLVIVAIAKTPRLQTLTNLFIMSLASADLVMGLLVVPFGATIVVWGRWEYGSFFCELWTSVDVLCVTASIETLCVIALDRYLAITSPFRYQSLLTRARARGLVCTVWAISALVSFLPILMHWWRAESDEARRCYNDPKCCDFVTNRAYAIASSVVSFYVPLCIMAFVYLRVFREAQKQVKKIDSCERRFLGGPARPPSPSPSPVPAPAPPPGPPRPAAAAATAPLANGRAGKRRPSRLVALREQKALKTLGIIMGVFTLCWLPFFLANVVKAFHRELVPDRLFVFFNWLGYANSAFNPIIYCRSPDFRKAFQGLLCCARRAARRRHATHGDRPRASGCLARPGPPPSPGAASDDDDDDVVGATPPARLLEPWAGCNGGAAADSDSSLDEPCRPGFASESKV

| IC50 (log) β2, IC50>top concentration used (human β2‐adrenoceptor) | Kd (human α2A‐adrenoceptor [1]) | Kd (human α2B‐adrenoceptor [2]) | Kd (human α2C‐adrenoceptor [3]) | IC50 (log) β1, IC50>top concentration used (human β1‐adrenoceptor [4]; ^3H‐CGP12177, log value) | Selectivity ratio α2A vs α2B (higher affinity for α2A) (human α2A‐adrenoceptor [5]) | Selectivity ratio α2A vs α2C (higher affinity for α2C) (human α2C‐adrenoceptor [6]) | Selectivity ratio α2B vs α2C (higher affinity for α2C) (human α2C‐adrenoceptor [6]) | Log KD β2 (human β2‐adrenoceptor) | Structure (SMILES) | further results |
| --- | --- | --- | --- | --- | --- | --- | --- | --- | --- | --- |
| IC50>−4 | 148 nM | 724 nM | 85.1 nM |  | 4.9 | 1.7 | 8.5 |  | O=C1Nc2ccccc2C2=NC(CN3CCN(c4ccccc4)CC3)CN12 (stereo not shown) [2‐PMDQ] | Log KD β1 (human β1‐adrenoceptor [4]): No binding −4 |
|  |  | 302 nM | 34.7 nM |  |  |  |  | −5.88 ± 0.04 | COc1cccc2c1CCC[C@H]2CN(C)CCc1ccc2ccoc2c1.CS(=O)(=O)O [A80426] |  |
|  | 100 nM | 339 nM | 15.1 nM | IC50>−3 | 3.4 | 6.6 | 22.4 | −4.77 ± 0.07 | Cc1c[nH]c(=O)n(CCCN2CCN(c3ccccc3OCC(F)(F)F)CC2)c1=O [RS100329] |  |
| IC50>−5 | 240 nM | 15.8 nM | 66.1 nM | IC50>−5 |  | 3.6 |  |  | COc1ccc(NC(=O)N2CCc3c2ccc2ccccc32)cc1N1CCN(C)CC1 [S32212] | selectivity α2B versus α2C (human α2B‐adrenoceptor [7]): less than 5 fold; Selectivity ratio α2A vs α2B (higher affinity for α2B) (human α2B‐adrenoceptor [7]; ratio of KD values): 15.1; Selectivity ratio α2B vs α2C (higher affinity for α2B) (human α2B‐adrenoceptor [7]; ratio of KD values): 4.2 |

Second part, the compound before the results:

| Structure (SMILES) | IC50 (log) β2, IC50>top concentration used (human β2‐adrenoceptor) | Kd (human α2A‐adrenoceptor [1]) | Kd (human α2B‐adrenoceptor [2]) | Kd (human α2C‐adrenoceptor [3]) | IC50 (log) β1, IC50>top concentration used (human β1‐adrenoceptor [4]; ^3H‐CGP12177, log value) | Selectivity ratio α2A vs α2B (higher affinity for α2A) (human α2A‐adrenoceptor [5]) | Selectivity ratio α2A vs α2C (higher affinity for α2C) (human α2C‐adrenoceptor [6]) | Selectivity ratio α2B vs α2C (higher affinity for α2C) (human α2C‐adrenoceptor [6]) | Log KD β2 (human β2‐adrenoceptor) | further results |
| --- | --- | --- | --- | --- | --- | --- | --- | --- | --- | --- |
| COc1ccccc1N1CCN(CC2CN3C(=O)N(C)c4ccccc4C3=N2)CC1 (stereo not shown) [2‐MPMDQ] | IC50>−5 | 162 nM | 1150 nM | 31.6 nM | IC50>−5 | 7.1 | 5.1 | 36.3 |  |  |
| O=C1c2ccccc2CCC1CNCCc1ccc(O)cc1 (stereo not shown) [HEAT] | IC50>−4 | 35.5 nM | 19.1 nM | 8.91 nM | IC50 ~−4.5 |  | 4.0 | 2.1 |  | Selectivity ratio α2A vs α2B (higher affinity for α2B) (human α2B‐adrenoceptor [7]; ratio of KD values): 1.9 |
| CN1CCN(c2ccc(Nc3c4ccccc4nc4ccccc34)cc2)CC1 [JP1302] |  |  |  |  |  |  |  |  | −5.58 ± 0.08 | IC50 (log) β1, IC50>top concentration used (human β1‐adrenoceptor [4]): IC50>−4; Kd (human α1A‐adrenoceptor): 617 nM; α1A‐adrenoceptor affinity less than α2C affinity (human α2C‐adrenoceptor [6]): 5 fold |
| CCS(=O)(=O)N1CCC[C@@H]2CN3CCc4cc(OC)ccc4[C@@H]3C[C@@H]21 [RS79948] | IC50>−3 | 1.17 nM | 2.69 nM | 0.437 nM |  | 2.3 | 2.7 | 6.2 |  | Log KD β1 (human β1‐adrenoceptor [4]): −3.84 ± 0.05 |
| CN1CCc2cccc(Cl)c2CC1 [SKF86466] |  |  |  |  |  |  |  |  |  | Kd (human β2‐adrenoceptor; this study, read-out: β2‐adrenoceptor affinity): 250 nM; Kd (human α2A‐adrenoceptors): 13 nM; Kd (human β1‐adrenoceptor [8]): 1200 nM; Kd (human α2A‐adrenoceptor [5]): 513 nM; Log KD α2B (human α2B‐adrenoceptor [7]): −6.17 ± 0.047 |
